Target: T1, p38δ (Homo sapiens, UniProt O15264)
T1 construct: endogenous in cells; host or cells: MDA-MB-231 (intact cells for degradation; cleared cell lysate for CETSA)
T1 sequence (O15264 1-365): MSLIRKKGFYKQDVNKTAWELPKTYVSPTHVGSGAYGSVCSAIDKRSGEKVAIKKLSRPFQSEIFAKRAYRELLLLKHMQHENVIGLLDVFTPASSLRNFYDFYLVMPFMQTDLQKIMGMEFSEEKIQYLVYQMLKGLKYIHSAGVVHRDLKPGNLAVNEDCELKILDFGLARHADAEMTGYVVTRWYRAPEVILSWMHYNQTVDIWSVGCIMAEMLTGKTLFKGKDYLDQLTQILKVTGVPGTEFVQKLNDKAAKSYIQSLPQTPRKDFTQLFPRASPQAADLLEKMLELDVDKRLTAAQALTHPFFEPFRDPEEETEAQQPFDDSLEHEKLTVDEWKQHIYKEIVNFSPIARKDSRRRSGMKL
Test: Cellular thermal shift assay (CETSA), MDA-MB-231 cell lysate
Format: cell-based
Conditions: 100 μM, 30 minutes, 51-55° C., vs DMSO
Procedure: FIGS. 17A and 17B. […] (A) Cellular thermal shift assay (CETSA) was conducted in MDA-MB-231 cells as a means to monitor cellular target engagement. Cell lysate was incubated with either vehicle (DMSO), exemplary compound 50 (100 μM), or exemplary compound 46 (100 μM) for 30 minutes prior to melting at the indicated temperatures. Assay was performed in duplicate and western blots of p38δ and α-tubulin (negative control) are shown. (B) Raw band intensities from (A) were measured, averaged, and reported (with SD) with increasing temperature (51-55° C.) from left-to-right. Top: p38δ CETSA analysis. […] Bottom: α-tubulin CETSA analysis.
To further assess these findings, a more biologically-relevant context for measuring ternary complex formation was used. […] Thus, whether PROTAC-induced PPIs could be monitored in a complex cellular environment using CETSA was examined. […]
CETSA protocol was adapted from (Mateus A, Maatta T A, & Savitski M M (2016) Thermal proteome profiling: unbiased assessment of protein state through heat-induced stability changes. Proteome Sci 15:13). […] After cooling, samples were spun down for 20 minutes (14,000×g at 4° C.) and the supernatant (soluble fraction) was analyzed by SDS-PAGE and immunoblotted for p38δ and alpha-tubulin (negative control).

Compound | thermal shift in the p38δ melting profile
COc1cc2c(Oc3ccc(NC(=O)C4(C(=O)Nc5ccc(F)cc5)CC4)cc3F)ccnc2cc1OCCOCCOCCOc1cc(-c2scnc2C)ccc1CNC(=O)[C@@H]1C[C@@H](O)CN1C(=O)[C@H](C(C)C)N1Cc2ccccc2C1=O [compound 46] | more pronounced at each melting temperature tested
COc1cc2c(Oc3ccc(NC(=O)C4(C(=O)Nc5ccc(F)cc5)CC4)cc3F)ccnc2cc1OCCCCOCCCCOCC(=O)N[C@H](C(=O)N1C[C@H](O)C[C@H]1C(=O)NCc1ccc(-c2scnc2C)cc1)C(C)(C)C [compound 50, N-(3-fluoro-4-((7-(4-(4-(2-(((S)-1-((2S,4R)-4-hydroxy-2-((4-(4-methylthiazol-5-yl)benzyl)carbamoyl)pyrrolidin-1-yl)-3,3-dimethyl-1-oxobutan-2-yl)amino)-2-oxoethoxy)butoxy)buto-xy)-6-methoxyquinolin-4-yl)oxy)phenyl)-N-(4-fluorophenyl)cyclopropane-1,1-dicarboxa-mide] | small, but statistically-significant (p=0.0121) thermal shift

— US20180353501A1 (Arvinas, Inc., priority 2017, published 2018)
